Values of other authors in patent publication US20110201631A1, “PHARMACEUTICAL FORMULATIONS COMPRISING PEMETREXED” (DR. REDDY'S LABORATORIES LTD., priority 2008, published 2011).

Details: U.S. Pat. No. 7,138,521

Which “Stability of crystal form relative to 2.5 hydrate” value does the source give for `Nc1nc2[nH]cc(CCc3ccc(C(=O)N[C@@H](CCC(=O)[O-])C(=O)[O-])cc3)c2c(=O)[nH]1.[Na+].[Na+]` [heptahydrate, L-Glutamic acid, N-[4-[2-(2-amino-4,7-dihydro-4-oxo-1H-pyrrolo[2,3-c]pyrimidin-5-yl)ethyl]benzoyl]-, disodium salt, heptahydrate] here?
The value was “much more stable than the previously known 2.5 hydrate”.
